# Data reported in patent US9567339B2, “Primary carboxamides as BTK inhibitors” (AbbVie Inc., priority 2013, dated 2017).
# Biological target: BTK, recombinant human catalytic domain (aa 393-659) (Homo sapiens (Human), UniProt Q06187)
# Assay: In vitro BTK kinase activity measured by time-resolved fluorescence resonance energy transfer (trFRET)
# Type: biochemical
# Settings: not given
# BTK, recombinant human catalytic domain (aa 393-659), sequence (Q06187 393-659): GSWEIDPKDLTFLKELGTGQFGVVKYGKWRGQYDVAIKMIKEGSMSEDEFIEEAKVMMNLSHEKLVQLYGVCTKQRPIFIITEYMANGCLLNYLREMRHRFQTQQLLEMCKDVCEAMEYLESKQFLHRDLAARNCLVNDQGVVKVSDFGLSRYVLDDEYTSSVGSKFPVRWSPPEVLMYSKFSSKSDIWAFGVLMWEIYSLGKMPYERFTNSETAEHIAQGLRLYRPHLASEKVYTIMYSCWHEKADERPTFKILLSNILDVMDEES
row,Structure (SMILES),IC50
1,Cc1c(NC(=O)c2nccs2)cccc1-c1ccc(C(N)=O)c2[nH]cc(NC(=O)CCl)c12 [E.5.1],1000 to 10000 nM

# Same assay, conditions: read-out: Btk IC50
row,Structure (SMILES),IC50
1,C=CC(=O)NCc1ccccc1-c1ccc(C(N)=O)c2[nH]c(C3=CCN(S(C)(=O)=O)CC3)cc12 [E.1.1],< 100 nM
2,C=CC(=O)Nc1ccccc1-c1ccc(C(N)=O)c2[nH]ccc12 [E.1.2],1000 to 10000 nM
3,C=CC(=O)Nc1cc(-c2ccc(C(N)=O)c3[nH]ccc23)ccn1 [E.1.3],< 100 nM
4,C=CC(=O)Nc1cncc(-c2ccc(C(N)=O)c3[nH]ccc23)c1 [E.1.4],< 100 nM
5,C=CC(=O)N(C)c1cccc(-c2ccc(C(N)=O)c3[nH]ccc23)c1 [E.1.5],< 100 nM
6,C=CC(=O)N(Cc1nccs1)c1cccc(-c2ccc(C(N)=O)c3[nH]c(C4=CCN(S(C)(=O)=O)CC4)cc23)c1C [E.1.7],< 100 nM
7,C=CC(=O)Nc1cc(-c2ccc(C(N)=O)c3[nH]ccc23)ccc1OC [E.1.8],100 to 1000 nM
8,C=CC(=O)Nc1cccc(-c2ncc(C(N)=O)c3[nH]ccc23)c1C [E.1.9],< 100 nM
9,C=CC(=O)Nc1cccc(-c2ncc(C(N)=O)c3[nH]ccc23)c1 [E.1.10],< 100 nM
10,C=CC(=O)Nc1cc(-c2ccc(C(N)=O)c3[nH]ccc23)ccc1OCc1ccccc1 [E.1.12],1000 to 10000 nM
11,C=CC(=O)Nc1cc(-c2ccc(C(N)=O)c3[nH]ccc23)ccc1OCc1nccs1 [E.1.13],100 to 1000 nM
12,C=CC(=O)Nc1cc(OCc2ccccc2)cc(-c2ccc(C(N)=O)c3[nH]ccc23)c1 [E.1.14],1000 to 10000 nM
13,C=CC(=O)Nc1cc(OCc2nccs2)cc(-c2ccc(C(N)=O)c3[nH]ccc23)c1 [E.1.15],100 to 1000 nM
14,C=CC(=O)Nc1cc(OCc2nccs2)ccc1-c1ccc(C(N)=O)c2[nH]ccc12 [E.1.16],1000 to 10000 nM
15,C=CC(=O)Nc1cc(OCc2ccccc2)ccc1-c1ccc(C(N)=O)c2[nH]ccc12 [E.1.17],1000 to 10000 nM
16,C=CC(=O)Nc1cc(-c2ccc(C(N)=O)c3[nH]ccc23)ccc1Cl [E.1.19],< 100 nM
17,C=CC(=O)Nc1ccc(F)c(-c2ccc(C(N)=O)c3[nH]ccc23)c1F [E.1.20],< 100 nM
18,C=CC(=O)Nc1cc(F)c(F)c(-c2ccc(C(N)=O)c3[nH]ccc23)c1 [E.1.21],< 100 nM
19,C=CC(=O)Nc1cc(-c2ccc(C(N)=O)c3[nH]ccc23)c(F)cc1F [E.1.22],< 100 nM
20,C=CC(=O)Nc1cc(-c2ccc(C(N)=O)c3[nH]ccc23)ccc1F [E.1.23],< 100 nM
21,C=CC(=O)Nc1ccc(Cl)c(-c2ccc(C(N)=O)c3[nH]ccc23)c1 [E.1.24],< 100 nM
22,C=CC(=O)Nc1cc(-c2ccc(C(N)=O)c3[nH]ccc23)ccc1C [E.1.25],< 100 nM

row,Structure (SMILES),IC50
1,C=CC(=O)Nc1cc(C#N)cc(-c2ccc(C(N)=O)c3[nH]ccc23)c1 [E.1.26],100 to 1000 nM
2,C=CC(=O)Nc1cccc(-c2ccc(C(N)=O)c3[nH]ccc23)c1C#N [E.1.27],100 to 1000 nM
3,C=CC(=O)Nc1cc(OC)cc(-c2ccc(C(N)=O)c3[nH]ccc23)c1 [E.1.28],100 to 1000 nM
4,C=CC(=O)Nc1cc(C)cc(-c2ccc(C(N)=O)c3[nH]ccc23)c1 [E.1.29],100 to 1000 nM
5,C=CC(=O)Nc1cccc(-c2ccc(C(N)=O)c3[nH]ccc23)c1OC [E.1.30],100 to 1000 nM
6,C=CC(=O)Nc1cc(-c2ccc(C(N)=O)c3[nH]ccc23)ccc1C#N [E.1.31],< 100 nM
7,C=CC(=O)Nc1ccc(F)c(-c2ccc(C(N)=O)c3[nH]ccc23)c1 [E.1.32],100 to 1000 nM
8,C=CC(=O)Nc1cccc(-c2ccc(C(N)=O)c3[nH]ccc23)c1F [E.1.33],< 100 nM
9,"C=CC(=O)N(CC1CCCC1)c1cccc(-c2ccc(C(N)=O)c3[nH]ccc23)c1 [E.1.34, 4-(3-(N-(cyclopentylmethyl)acrylamido)phenyl)-1H-indole-7-carboxamide]",1000 to 10000 nM
10,"C=CC(=O)N(CC(C)C)c1cccc(-c2ccc(C(N)=O)c3[nH]ccc23)c1 [E.1.35, 4-(3-(N-isobutylacrylamido)phenyl)-1H-indole-7-carboxamide]",100 to 1000 nM
11,Cc1c(NC(=O)c2nccs2)cccc1-c1ccc(C(N)=O)c2[nH]c(-c3ccccc3CNC(=O)CCl)cc12 [E.4.1],100 to 1000 nM
12,CCC(=O)NCc1ccccc1-c1cc2c(-c3cccc(NC(=O)c4nccs4)c3C)ccc(C(N)=O)c2[nH]1 [E.4.2],1000 to 10000 nM
13,CC(=O)NCc1ccccc1-c1cc2c(-c3cccc(NC(=O)c4nccs4)c3C)ccc(C(N)=O)c2[nH]1 [E.4.3],100 to 1000 nM
14,CCOC(=O)N1CC=C(c2cc3c(-c4cccc(-n5cnc6ccccc6c5=O)c4C)ccc(C(N)=O)c3[nH]2)C1 [E.6.1],< 100 nM
15,CCOC(=O)N1CC=C(c2cc3c(-c4cccc(-n5cnc6ccccc6c5=O)c4C)ccc(C(N)=O)c3[nH]2)CC1 [E.6.2],< 100 nM
16,CC(=O)C(=O)Nc1cccc(-c2ccc(C(N)=O)c3[nH]ccc23)c1 [E.7.1],100 to 1000 nM
17,CC(=O)C(=O)NCc1cccc(-c2ccc(C(N)=O)c3[nH]ccc23)c1 [E.7.2],100 to 1000 nM
18,CC(=O)N1CC=C(c2cc3c(-c4cccc(-n5cnc6ccccc6c5=O)c4C)ccc(C(N)=O)c3[nH]2)C1 [E.8.1],< 100 nM
19,CC(=O)N1CC=C(c2cc3c(-c4cccc(-n5cnc6ccccc6c5=O)c4C)ccc(C(N)=O)c3[nH]2)CC1 [E.8.2],< 100 nM
20,C=CC(=O)N1CC([C@@H](C)c2ncc(C(N)=O)c3[nH]ccc23)C1 [E.9.28],< 100 nM
21,C=CC(=O)N1CC([C@H](C)c2ncc(C(N)=O)c3[nH]ccc23)C1 [E.9.29],100 to 1000 nM
22,C=CC(=O)N1CC(Nc2cnc(C(N)=O)c3[nH]ccc23)C1 [E.9.34],< 100 nM

# Second part, the compound after the results:
row,IC50,Structure (SMILES)
1,< 100 nM,C=CC(=O)N[C@@H]1CCCN(c2ccc(C(N)=O)c3[nH]c(C4=CCN(S(C)(=O)=O)CC4)cc23)C1 [E.1.11*]
2,< 100 nM,C=CC(=O)Nc1cccc(-c2ccc(C(N)=O)c3[nH]c(C=C)cc23)c1 [E.1.18]
3,100 to 1000 nM,C=CC(=O)N1CC(N(C)c2ccc(C(N)=O)c3[nH]c(C4(O)COC4)cc23)C1 [E.9.1.1]
4,< 100 nM,C=CC(=O)N1CC(N(C)c2ccc(C(N)=O)c3[nH]c(C4CC4)cc23)C1 [E.9.2]
5,< 100 nM,C=CC(=O)N1CC(N(C)c2ccc(C(N)=O)c3[nH]c(-c4ccc5c(c4)COCC5)cc23)C1 [E.9.3]
6,< 100 nM,C=CC(=O)N1CC(N(C)c2ccc(C(N)=O)c3[nH]c(-c4cc5n(n4)CCOC5)cc23)C1 [E.9.4]
7,< 100 nM,C=CC(=O)N1CC(N(C)c2ccc(C(N)=O)c3[nH]c(C4=CCC(F)(F)CC4)cc23)C1 [E.9.5]
8,< 100 nM,C=CC(=O)N1CC(N(C)c2ccc(C(N)=O)c3[nH]c(C4=CCC(S(C)(=O)=O)CC4)cc23)C1 (stereo not drawn) [E.9.6]
9,< 100 nM,C=CC(=O)N1CCC[C@@H](c2ccc(C(N)=O)c3[nH]c(C)cc23)C1 [E.9.7]
10,< 100 nM,C=CC(=O)N1CCC[C@H](c2ccc(C(N)=O)c3[nH]c(C)cc23)C1 [E.9.8]
11,< 100 nM,C=CC(=O)N1CC(N(C)c2ccc(C(N)=O)c3[nH]c(-c4ccc(N5CCOCC5)nc4)cc23)C1 [E.9.10]
12,< 100 nM,C=CC(=O)N1CC(N(C)c2ccc(C(N)=O)c3[nH]c(-c4cnc5c(c4)COCC5)cc23)C1 [E.9.11]
13,< 100 nM,C=CC(=O)N1CC(N(C)c2ccc(C(N)=O)c3[nH]c(-c4ccc5c(c4)OCCC5)cc23)C1 [E.9.12]
14,< 100 nM,C=CC(=O)N1CC(N(C)c2ccc(C(N)=O)c3[nH]c(-c4ccc(CN5CCOCC5)cn4)cc23)C1 [E.9.13]
15,< 100 nM,C=CC(=O)N1CC(N(C)c2ccc(C(N)=O)c3[nH]c(-c4cnn(C)c4)cc23)C1 [E.9.14]
16,< 100 nM,C=CC(=O)N1CC(N(C)c2ccc(C(N)=O)c3[nH]c(-c4ccc5c(c4)NCCO5)cc23)C1 [E.9.15]
17,< 100 nM,C=CC(=O)N1CC(N(C)c2ccc(C(N)=O)c3[nH]c(-c4ccnn4C)cc23)C1 [E.9.16]

row,IC50,Structure (SMILES)
1,< 100 nM,C=CC(=O)N1CC(N(C)c2ccc(C(N)=O)c3[nH]c(-c4ccc5c(c4)CCN(CC)C5)cc23)C1 [E.9.17]
2,< 100 nM,C=CC(=O)N1CC(N(C)c2ccc(C(N)=O)c3[nH]c(-c4cn(C)nc4C)cc23)C1 [E.9.18]
3,< 100 nM,C=CC(=O)N1CC(N(C)c2ccc(C(N)=O)c3[nH]c(C4CCS(=O)(=O)CC4)cc23)C1 [E.9.19]
4,< 100 nM,C=CC(=O)N1CC(N(C)c2ccc(C(N)=O)c3[nH]c(C4CCN(CCC)CC4)cc23)C1 [E.9.20]
5,< 100 nM,C=CC(=O)N1CC(N(C)c2ccc(C(N)=O)c3[nH]c(C4CCOC4)cc23)C1 (stereo not drawn) [E.9.21]
6,100 to 1000 nM,C=CC(=O)N1CC(N(C)c2ccc(C(N)=O)c3[nH]c(C4(O)COC4)cc23)C1 [E.9.22]
7,< 100 nM,C=CC(=O)N1CCO[C@H](c2ccc(C(N)=O)c3[nH]c(-c4cnn(C)c4)cc23)C1 [E.9.23]
8,< 100 nM,C=CC(=O)N1CCO[C@@H](c2ccc(C(N)=O)c3[nH]c(-c4cnn(C)c4)cc23)C1 [E.9.24]
9,< 100 nM,C=CC(=O)N1CC(N(C)c2ccc(C(N)=O)c3[nH]c(C)cc23)C1 [E.9.25]
10,< 100 nM,C=CC(=O)N1CC[C@H](c2ccc(C(N)=O)c3[nH]c(-c4cc5n(n4)CCOC5)cc23)C1 [E.9.26]
11,< 100 nM,C=CC(=O)N1CC[C@@H](c2ccc(C(N)=O)c3[nH]c(-c4cc5n(n4)CCOC5)cc23)C1 [E.9.27]
12,< 100 nM,C=CC(=O)N1CCOC[C@@H](c2ncc(C(N)=O)c3[nH]ccc23)C1 [E.9.30]
13,1000 to 10000 nM,C=CC(=O)N1CCOC[C@H](c2ncc(C(N)=O)c3[nH]ccc23)C1 [E.9.31]
14,< 100 nM,C=CC(=O)N1CCC[C@@H](c2ncc(C(N)=O)c3[nH]ccc23)C1 [E.9.32]
15,100 to 1000 nM,C=CC(=O)N1CCC[C@H](c2ncc(C(N)=O)c3[nH]ccc23)C1 [E.9.33]
16,< 100 nM,C=CC(=O)N1CC(C)(N(C)c2ccc(C(N)=O)c3[nH]ccc23)C1 [E.9.35]

# Same assay, conditions: trFRET, 0.001 mM ATP, biotin-TYR1 peptide substrate; read-out: Btk IC50
row,IC50,Structure (SMILES)
1,< 100 nM,"C=CC(=O)Nc1cccc(-c2ccc(C(N)=O)c3[nH]c(C4=CCC(F)(F)CC4)cc23)c1C [E.1, 4-(3-Acrylamido-2-methylphenyl)-2-(4,4-difluorocyclohex-1-en-1-yl)-1H-indole-7-carboxamide]"
2,1000 to 10000 nM,"Cc1oncc1C(=O)Nc1cccc(-c2ccc(C(N)=O)c3[nH]ccc23)c1 [E.2.1, N-(3-(7-carbamoyl-1H-indol-4-yl)phenyl)-5-methylisoxazole-4-carboxamide]"
3,1000 to 10000 nM,CN1CCC=C(C(=O)Nc2cccc(-c3ccc(C(N)=O)c4[nH]ccc34)c2)C1 [E.2.2]
